Each compound was assayed against T1, PIP4K2C (Homo sapiens, UniProt Q8TBX8) (assay: Enzyme Binding Assay (KINOMEscan): active site-directed competition binding to an immobilized ligand). Details: 11-point dose response, duplicate, top concentration 5 micromolar; read-out: Pip4k2c Kd: IC50.
T1 sequence (Q8TBX8 1-421): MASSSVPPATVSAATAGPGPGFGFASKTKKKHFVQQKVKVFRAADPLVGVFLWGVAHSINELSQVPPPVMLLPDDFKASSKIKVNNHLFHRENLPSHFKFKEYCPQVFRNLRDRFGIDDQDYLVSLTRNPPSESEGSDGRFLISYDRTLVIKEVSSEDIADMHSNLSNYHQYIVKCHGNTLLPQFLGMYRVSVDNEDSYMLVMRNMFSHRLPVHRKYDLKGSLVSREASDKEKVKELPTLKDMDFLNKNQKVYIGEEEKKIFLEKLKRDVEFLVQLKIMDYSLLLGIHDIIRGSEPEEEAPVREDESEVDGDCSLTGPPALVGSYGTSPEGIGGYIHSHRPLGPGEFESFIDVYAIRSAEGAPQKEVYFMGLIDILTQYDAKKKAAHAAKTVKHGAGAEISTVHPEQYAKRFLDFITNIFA
Parameters: purchased Eurofins DiscoverX, San Diego, CA 87-0007-1094
How it was run: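 Active site-directed competition binding against an immobilized ligand. 11-point dose-response in duplicate, top concentration 5 micromolar; IC50 from a Hill equation fitted by the Levenberg-Marquardt algorithm.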

`CC(=O)N1CCC(Nc2ncc(F)c(-c3cccc(N4CCC(O)CC4)c3)n2)CC1` [Compound 211, 1-(4-((5-fluoro-4-(3-(4-hydroxypiperidin-1-yl)phenyl)pyrimidin-2-yl)amino)piperidin-1-yl)ethan-1-one] and `CC(=O)N1CCC(Nc2ncc(F)c(-c3cccc(N4CCC(O)C4=O)c3)n2)CC1` (centres unmarked) [Compound 228, 1-(3-(2-((1-acetylpiperidin-4-yl)amino)-5-fluoropyrimidin-4-yl)phenyl)-3-hydroxypyrrolidin-2-one] cannot be ordered by IC50: less than 500 nM for the first, less than 500 nM for the second.

`CC(=O)N1CCC(Nc2ncc(F)c(-c3cccc(C(=O)N4CC[C@H](O)C4)c3)n2)CC1` [Compound 212, (S)-1-(4-((5-fluoro-4-(3-(3-hydroxypyrrolidine-1-carbonyl)phenyl)pyrimidin-2-yl)amino)piperidin-1-yl)ethan-1-one] and `CC(=O)N1CCC(Nc2ncc(F)c(-c3cccc(C(=O)N4CC[C@@H](O)C4)c3)n2)CC1` [Compound 213, (R)-1-(4-((5-fluoro-4-(3-(3-hydroxypyrrolidine-1-carbonyl)phenyl)pyrimidin-2-yl)amino)piperidin-1-yl)ethan-1-one] cannot be ordered by IC50: less than 500 nM for the first, less than 500 nM for the second.

`CC(=O)N1CCC(Nc2ncc(F)c(-c3cccc(C(=O)N4CC(O)C4)c3)n2)CC1` [Compound 214, 1-(4-((5-fluoro-4-(3-(3-hydroxyazetidine-1-carbonyl)phenyl)pyrimidin-2-yl)amino)piperidin-1-yl)ethan-1-one] and `CC(=O)N1CCC(Nc2ncc(F)c(-c3cccc(N4C[C@@H](O)CC4=O)c3)n2)CC1` [Compound 230, (4S)-1-[3-[2-[(1-acetyl-4-piperidyl)amino]-5-fluoro-pyrimidin-4-yl]phenyl]-4-hydroxy-pyrrolidin-2-one] cannot be ordered by IC50: less than 500 nM for the first, less than 500 nM for the second.

First: CC(=O)N1CCC(Nc2ncc(F)c(N3CCC[C@H](C(=O)N4CC[C@H](O)C4)C3)n2)CC1 [Compound 215, 1-(4-((5-fluoro-4-((S)-3-((S)-3-hydroxypyrrolidine-1-carbonyl)piperidin-1-yl)pyrimidin-2-yl)amino)piperidin-1-yl)ethan-1-one]
Second: CC(=O)N1CCC(Nc2ncc(F)c(N3CCC[C@H](C(=O)N4CC[C@@H](O)C4)C3)n2)CC1 [Compound 216, 1-(4-((5-fluoro-4-((S)-3-((R)-3-hydroxypyrrolidine-1-carbonyl)piperidin-1-yl)pyrimidin-2-yl)amino)piperidin-1-yl)ethan-1-one]
The IC50 of the first is higher: 1000 to 5000 nM for the first, 500 to 1000 nM for the second.

`CC(=O)N1CCC(Nc2ncc(F)c(-c3cccc(C(=O)N4CCC(O)(CO)CC4)c3)n2)CC1` [Compound 217, 1-[4-[[5-fluoro-4-[3-[4-hydroxy-4-(hydroxymethyl)piperidine-1-carbonyl]phenyl]pyrimidin-2-yl]amino]-1-piperidyl]ethanone] and `CC(=O)N1CCC(Nc2ncc(F)c(-c3cccc(C(=O)N4CCC(O)(CN)CC4)c3)n2)CC1` [Compound 218, 1-(4-((4-(3-(4-(aminomethyl)-4-hydroxypiperidine-1-carbonyl)phenyl)-5-fluoropyrimidin-2-yl)amino)piperidin-1-yl)ethan-1-one] cannot be ordered by IC50: less than 500 nM for the first, less than 500 nM for the second.

First: CC(=O)N1CCC(Nc2ncc(F)c(-n3cc(C4CC4)cn3)n2)CC1 [Compound 219, 1-(4-((4-(4-cyclopropyl-1H-pyrazol-1-yl)-5-fluoropyrimidin-2-yl)amino)piperidin-1-yl)ethan-1-one]
Second: CC(=O)N1CCC(Nc2ncc(F)c(N3CCCC(c4cc[nH]c(=O)c4)C3)n2)CC1 (centres unmarked) [Compound 224, 4-(1-(2-((1-acetylpiperidin-4-yl)amino)-5-fluoropyrimidin-4-yl)piperidin-3-yl)pyridin-2(1H)-one]
The IC50 of the first is lower: less than 500 nM for the first, 500 to 1000 nM for the second. The first is the more potent here.

`CC(=O)N1CCC(Nc2ncc(F)c(-c3cccc(N4CCCOC4=O)c3)n2)CC1` [Compound 220, 3-[3-[2-[(1-acetyl-4-piperidyl)amino]-5-fluoro-pyrimidin-4-yl]phenyl]-1,3-oxazinan-2-one] and `CC(=O)N1CCC(Nc2ncc(F)c(-c3cccc(N4CCOC4=O)c3)n2)CC1` [Compound 226, 3-(3-(2-((1-acetylpiperidin-4-yl)amino)-5-fluoropyrimidin-4-yl)phenyl)oxazolidin-2-one] cannot be ordered by IC50: less than 500 nM for the first, less than 500 nM for the second.

`CC(=O)N1CCC(Nc2ncc(F)c(-c3cccc(N4CCCCC4=O)c3)n2)CC1` [Compound 221, 1-(3-(2-((1-acetylpiperidin-4-yl)amino)-5-fluoropyrimidin-4-yl)phenyl)piperidin-2-one] and `CC(=O)N1CCC(Nc2ncc(F)c(-c3cccc(N4CCCC4=O)c3)n2)CC1` [Compound 222, 1-[3-[2-[(1-acetyl-4-piperidyl)amino]-5-fluoro-pyrimidin-4-yl]phenyl]pyrrolidin-2-one] cannot be ordered by IC50: less than 500 nM for the first, less than 500 nM for the second.

`NC(=O)[C@@H]1CC[C@H](Nc2ncc(F)c(-c3cccc(-c4ccc[nH]c4=O)c3)n2)C1` [Compound 223, (1R,3S)-3-((5-fluoro-4-(3-(2-oxo-1,2-dihydropyridin-3-yl)phenyl)pyrimidin-2-yl)amino)cyclopentane-1-carboxamide] and `NC(=O)[C@H]1CC[C@H](Nc2ncc(F)c(-c3cccc(-c4ccc(=O)[nH]c4)c3)n2)CC1` [Compound 229, trans-4-((5-fluoro-4-(3-(6-oxo-1,6-dihydropyridin-3-yl)phenyl)pyrimidin-2-yl)amino)cyclohexane-1-carboxamide] cannot be ordered by IC50: less than 500 nM for the first, less than 500 nM for the second.

`CC(=O)N[C@H]1CC[C@H](Nc2ncc(F)c(-c3cccc(N4CCCOC4=O)c3)n2)CC1` [Compound 225, trans-N-(4-((5-fluoro-4-(3-(2-oxo-1,3-oxazinan-3-yl)phenyl)pyrimidin-2-yl)amino)cyclohexyl)acetamide] and `CC(=O)N[C@H]1CC[C@H](Nc2ncc(F)c(-c3cccc(N4CCOC4=O)c3)n2)CC1` [Compound 233, trans-N-(4-((5-fluoro-4-(3-(2-oxooxazolidin-3-yl)phenyl)pyrimidin-2-yl)amino)cyclohexyl)acetamide] cannot be ordered by IC50: less than 500 nM for the first, less than 500 nM for the second.

`CC(=O)N[C@H]1CC[C@H](Nc2ncc(F)c(-c3ccnc(C4(O)CCC4)c3)n2)CC1` [Compound 231, trans-N-(4-((5-fluoro-4-(2-(1-hydroxycyclobutyl)pyridin-4-yl)pyrimidin-2-yl)amino)cyclohexyl)acetamide] and `NC(=O)[C@H]1CC[C@H](Nc2ncc(F)c(-c3ccnc(C4(O)CCC4)c3)n2)CC1` [Compound 243, trans-4-((5-fluoro-4-(2-(1-hydroxycyclobutyl)pyridin-4-yl)pyrimidin-2-yl)amino)cyclohexane-1-carboxamide] cannot be ordered by IC50: less than 500 nM for the first, less than 500 nM for the second.

`CC(=O)N1CCC(Nc2ncc(F)c(-c3ccnc(C4(O)CCC4)c3)n2)CC1` [Compound 232, 1-(4-((5-fluoro-4-(2-(1-hydroxycyclobutyl)pyridin-4-yl)pyrimidin-2-yl)amino)piperidin-1-yl)ethan-1-one] and `CC(=O)N1CCC(Nc2ncc(F)c(-c3cccc(-c4ncc[nH]4)c3)n2)CC1` [Compound 239, 1-(4-((4-(3-(1H-imidazol-2-yl)phenyl)-5-fluoropyrimidin-2-yl)amino)piperidin-1-yl)ethan-1-one] cannot be ordered by IC50: less than 500 nM for the first, less than 500 nM for the second.

`CC(=O)N[C@H]1CC[C@H](Nc2ncc(F)c(-c3cccc(-n4cc(C(F)(F)F)ccc4=O)c3)n2)CC1` [Compound 234, trans-N-(4-((5-fluoro-4-(3-(2-oxo-5-(trifluoromethyl)pyridin-1 (2H)-yl)phenyl)pyrimidin-2-yl)amino)cyclohexyl)acetamide] and `CC(=O)N[C@H]1CC[C@H](Nc2ncc(F)c(-c3cccc(-n4cc(C)ccc4=O)c3)n2)CC1` [Compound 235, trans-N-(4-((5-fluoro-4-(3-(5-methyl-2-oxopyridin-1 (2H)-yl)phenyl)pyrimidin-2-yl)amino)cyclohexyl)acetamide] cannot be ordered by IC50: less than 500 nM for the first, less than 500 nM for the second.

`NC(=O)[C@H]1CC[C@H](Nc2ncc(F)c(-c3cccc(N4CCCOC4=O)c3)n2)CC1` [Compound 236, trans-4-((5-fluoro-4-(3-(2-oxo-1,3-oxazinan-3-yl)phenyl)pyrimidin-2-yl)amino)cyclohexane-1-carboxamide] and `NC(=O)[C@H]1CC[C@H](Nc2ncc(F)c(-c3cccc(-n4ccccc4=O)c3)n2)CC1` [Compound 240, trans-(1r,4r)-4-((5-fluoro-4-(3-(2-oxopyridin-1 (2H)-yl)phenyl)pyrimidin-2-yl)amino)cyclohexane-1-carboxamide] cannot be ordered by IC50: less than 500 nM for the first, less than 500 nM for the second.

`CC(=O)N1CCC(Nc2ncc(F)c(-c3cccc(N4C[C@H](O)CC4=O)c3)n2)CC1` [Compound 237, (4R)-1-[3-[2-[(1-acetyl-4-piperidyl)amino]-5-fluoro-pyrimidin-4-yl]phenyl]-4-hydroxy-pyrrolidin-2-one] and `CC(=O)N[C@H]1CC[C@H](Nc2ncc(F)c(-c3cccc(-n4ccccc4=O)c3)n2)CC1` [Compound 238, trans-N-[4-[[5-fluoro-4-[3-(2-oxo-1-pyridyl)phenyl]pyrimidin-2-yl]amino]cyclohexyl]acetamide] cannot be ordered by IC50: less than 500 nM for the first, less than 500 nM for the second.

`CC(=O)N[C@H]1CC[C@H](Nc2ncc(F)c(-c3ccnc(C(C)(C)O)c3)n2)CC1` [Compound 241, trans-N-(4-((5-fluoro-4-(2-(2-hydroxypropan-2-yl)pyridin-4-yl)pyrimidin-2-yl)amino)cyclohexyl)acetamide] and `CC(C)(O)c1cc(-c2nc(N[C@H]3CC[C@H](C(N)=O)CC3)ncc2F)ccn1` [Compound 242, trans-4-((5-fluoro-4-(2-(2-hydroxypropan-2-yl)pyridin-4-yl)pyrimidin-2-yl)amino)cyclohexane-1-carboxamide] cannot be ordered by IC50: less than 500 nM for the first, less than 500 nM for the second.

From patent publication US20260355196A1, “INHIBITORS AND DEGRADERS OF PIP4K PROTEIN” (Larkspur Biosciences, Inc., priority 2023, published 2026)
